# Experimental data reported in article PMC5399295 (Nature Communications, 2017).
# Where two headings read alike, the source gives them in different places.
# T1: β2-adaptin(700–937)-StrepTagII (human, UniProt P63010 700-937)
# T1 construct: human β2-adaptin, residues 700 to 937 (appendage domain); printed molecular weight 26.88 kDa; Cloned into pRSETA between BamHI and Acc65I; also called β2-appendage; β-appendage; source: E. coli BL21 pLysS, purified (Strep-Tactin Sepharose, sepharose column, gel filtration)
# T1 sequence (looked up): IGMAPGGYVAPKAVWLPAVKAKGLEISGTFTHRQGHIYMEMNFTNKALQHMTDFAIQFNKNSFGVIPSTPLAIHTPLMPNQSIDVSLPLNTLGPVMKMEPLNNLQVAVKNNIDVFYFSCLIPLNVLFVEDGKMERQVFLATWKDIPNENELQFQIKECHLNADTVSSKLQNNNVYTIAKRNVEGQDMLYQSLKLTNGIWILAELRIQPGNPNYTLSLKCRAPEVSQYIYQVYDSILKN
# B1: β-arrestin1 C-terminal peptide (peptide)
# peptide: DDDIVFEDFARQRLKGMKDD
# notes: C-terminal stretch of β-arrestin1; holds Phe-388, Phe-391 and Arg-395; also called β-arrestin1 C-tail peptide; 20-mer β-arrestin C-tail peptide; source: synthetic peptide (Genscript)
# Legend:
# [1] = biological target: T2, β2-adaptin (Homo sapiens, UniProt P63010); assay: cell-based; parameters: species or system HEK293T; conditions: β-arrestin1/β2-adaptin interaction, V2R stimulated; read-out: IC50 AP2/βarr1 (V2R)
# T2 construct: gene AP2B1; residues 700-937 StrepTagII used only for DSF
# Experimental: To assess the potency of these compounds, concentration-response curves of the inhibitory actions of the compounds on the V2R-stimulated β-arrestin/β2-adaptin interaction were carried out. In addition to compounds #33 and #42, compound #1 was included in the analysis as a negative control (Fig. 2a–c). […] First, the reversible mode of action of Barbadin was assessed by incubating cells with Barbadin for 30 min and monitoring BRET between β2-adaptin and β-arrestin1 following, or not, extensive wash before AVP stimulation. […] HEK293T cells stably expressing β2-adaptin-YFP (ref. [24]) were cultured as aforementioned with the addition of G418 in the supplemented DMEM. Forty-eight hours before the experiments, 10 μg of total DNA (adjusted with salmon sperm DNA) was used to transfect 6 × 10^6 cells per ml in 10-cm dishes using 25-kDa linear PEI as a transfecting agent (3:1 PEI/DNA ratio). […] On the day of the BRET experiment, cells were washed, detached and resuspended in Tyrode's buffer. Cells (10^5 cells per well) were distributed in 96-wells microplates. DMSO or compounds selected from the virtual screening were preincubated for 30 min at indicated concentrations, always keeping DMSO at 1% final concentration in each well. Cells were treated with AVP or ISO at the indicated times and concentrations, at room temperature. Coelenterazine H (for YFP BRET acceptor) or coelenterazine 400 A (for GFP10 BRET acceptor) was added at a final concentration of 2.5 μM five minutes before measurements. Readings were collected with a Mithras LB 940 multidetector plate reader (Berthold Technologies) to integrate signals detected in the 485/20 nm and 530/25 nm windows for the Renilla luciferase (RlucII) and YFP light emissions, respectively, and in the 400/70 nm and 515/25 nm windows for the RlucII and GFP10 light emissions, respectively. The BRET signal was determined by calculating the ratio of the light intensity emitted by the YFP or GFP10 over the light intensity emitted by the RlucII. Net BR
# [2] = test system: β2-adaptin; assay: cells; parameters: species or system HEK293T; ebBRET receptor-RlucII with rGFP-CAAX, inhibition of agonist-induced receptor loss from plasma membrane; conditions: Homo sapiens, HEK-293T, 0.5 h; β2AR endocytosis, ISO 10 uM 30 min; read-out: IC50 membrane localization β2AR
# From the text: Because the interaction between β-arrestins and β2-adaptin is important for initiating receptor internalization, we next sought to determine whether Barbadin could be used as a pharmacological tool, to block the ligand-promoted endocytosis of GPCRs. For this purpose, we used enhanced bystander BRET (ebBRET) trafficking sensors allowing to monitor both receptor disappearance from the plasma membrane (rGFP-CAAX sensor, Fig. 4a) and their accumulation in early endosomes (rGFP-FYVE, Fig. 4e) in spectrometric and microscopy-based assays. […] The effect of Barbadin on endocytosis was further confirmed using BRET-microscopy allowing to image receptor localization at the plasma membrane (Fig. 4i and Supplementary Fig. 5i), and in early endosomes (Supplementary Fig. 5j), coherent with the spectrometric measurements (Fig. 4b–d,f–h). Figure 4 Barbadin inhibits GPCRs endocytosis. […] (b–d,f–h) V2R, β2AR or AT1R interaction with either rGFP-CAAX (b–d, respectively) or rGFP-FYVE (f–h, respectively) was assessed by BRET following HEK293T cells pre-incubation with DMSO or Barbadin (100 μM) for 30 min before AVP (100 nM), ISO (10 μM) or AngII (1 μM) stimulation for the indicated times. […] To generate BRET images, the ratio of acceptor photon counts to donor photon counts was calculated for each pixel and expressed as a colour-coded heat map (lowest being black and purple, and highest red and white). […]
# [3] = biological target: T2, β2-adaptin; assay: differential scanning fluorimetry (CPM dye) on purified β2-appendage, dose-dependent Tm shift; supported by GST-β2-adaptin([…]) pull-down and cell BRET (IC50 […] for β-arrestin1, from cell BRET); format: cell-based
# [4] = test system: β2-adaptin; assay: cells; parameters: species or system HEK293T; ebBRET receptor-RlucII with rGFP-FYVE, inhibition of agonist-induced receptor accumulation in early endosomes; conditions: Homo sapiens, HEK-293T, 0.5 h
# From the text: Because the interaction between β-arrestins and β2-adaptin is important for initiating receptor internalization, we next sought to determine whether Barbadin could be used as a pharmacological tool, to block the ligand-promoted endocytosis of GPCRs. For this purpose, we used enhanced bystander BRET (ebBRET) trafficking sensors allowing to monitor both receptor disappearance from the plasma membrane (rGFP-CAAX sensor, Fig. 4a) and their accumulation in early endosomes (rGFP-FYVE, Fig. 4e) in spectrometric and microscopy-based assays. […] The effect of Barbadin on endocytosis was further confirmed using BRET-microscopy allowing to image receptor localization at the plasma membrane (Fig. 4i and Supplementary Fig. 5i), and in early endosomes (Supplementary Fig. 5j), coherent with the spectrometric measurements (Fig. 4b–d,f–h).  Figure 4 Barbadin inhibits GPCRs endocytosis. (a,e) Schematic representation of the ebBRET-based assay used to follow agonist-induced receptor loss from the cell surface by monitoring the interaction between receptor-RLucII and rGFP-CAAX (a) or its translocation into endosomes using rGFP-FYVE (e). (b–d,f–h) V2R, β2AR or AT1R interaction with either rGFP-CAAX (b–d, respectively) or rGFP-FYVE (f–h, respectively) was assessed by BRET following HEK293T cells pre-incubation with DMSO or Barbadin (100 μM) for 30 min before AVP (100 nM), ISO (10 μM) or AngII (1 μM) stimulation for the indicated times. Data are the mean±s.e.m. of a least three independent experiments. (i) V2R localization was imaged by BRET. HEK293T cells were transfected with V2R-RlucII and rGFP-CAAX, pretreated with DMSO or Barbadin (100 μM) for 30 min and then stimulated with 100 nM AVP for 30 min. To generate BRET images, the ratio of acceptor photon counts to donor photon counts was calculated for each pixel and expressed as a colour-coded heat map (lowest being black and purple, and highest red and white). Scale bar, 10 μm.
# [5] = biological target: T1, β2-adaptin(700–937)-StrepTagII; assay: differential scanning fluorimetry (thermal shift); 0.78 μM purified β2-adaptin (700–937) in PBS with 0.5 mM Triton X-100, 30 min with 20 μM β-arrestin1 C-terminal peptide; CPM dye; 30 °C to 90 °C at 6 °C per min; conditions: both partners purified
# T2 sequence (P63010 2-937): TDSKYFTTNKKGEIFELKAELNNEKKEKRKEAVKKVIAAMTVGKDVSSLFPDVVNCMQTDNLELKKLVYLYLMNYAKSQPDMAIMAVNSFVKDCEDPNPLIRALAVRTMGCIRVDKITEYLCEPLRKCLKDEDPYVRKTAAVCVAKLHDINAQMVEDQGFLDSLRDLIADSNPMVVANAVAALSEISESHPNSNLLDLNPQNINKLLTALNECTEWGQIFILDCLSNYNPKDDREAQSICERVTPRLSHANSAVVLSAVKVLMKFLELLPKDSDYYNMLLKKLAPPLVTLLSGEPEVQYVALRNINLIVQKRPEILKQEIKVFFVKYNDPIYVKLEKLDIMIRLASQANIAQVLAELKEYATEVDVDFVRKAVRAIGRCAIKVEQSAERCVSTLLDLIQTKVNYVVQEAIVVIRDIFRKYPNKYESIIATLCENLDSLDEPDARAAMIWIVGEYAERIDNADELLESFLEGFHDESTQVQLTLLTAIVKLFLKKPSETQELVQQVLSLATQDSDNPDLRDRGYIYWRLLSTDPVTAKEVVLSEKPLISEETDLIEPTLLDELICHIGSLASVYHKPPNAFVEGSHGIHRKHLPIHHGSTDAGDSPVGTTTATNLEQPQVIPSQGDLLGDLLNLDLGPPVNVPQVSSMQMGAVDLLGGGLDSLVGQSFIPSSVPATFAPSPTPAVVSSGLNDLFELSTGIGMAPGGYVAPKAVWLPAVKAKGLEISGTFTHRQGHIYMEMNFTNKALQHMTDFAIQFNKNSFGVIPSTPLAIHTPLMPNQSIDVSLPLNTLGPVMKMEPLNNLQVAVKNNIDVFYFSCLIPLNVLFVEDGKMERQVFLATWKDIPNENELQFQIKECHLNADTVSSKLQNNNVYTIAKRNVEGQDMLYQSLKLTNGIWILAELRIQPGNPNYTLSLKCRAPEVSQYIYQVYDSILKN
# T2 sequence (P49407 whole entry partner, the tested form may be a part): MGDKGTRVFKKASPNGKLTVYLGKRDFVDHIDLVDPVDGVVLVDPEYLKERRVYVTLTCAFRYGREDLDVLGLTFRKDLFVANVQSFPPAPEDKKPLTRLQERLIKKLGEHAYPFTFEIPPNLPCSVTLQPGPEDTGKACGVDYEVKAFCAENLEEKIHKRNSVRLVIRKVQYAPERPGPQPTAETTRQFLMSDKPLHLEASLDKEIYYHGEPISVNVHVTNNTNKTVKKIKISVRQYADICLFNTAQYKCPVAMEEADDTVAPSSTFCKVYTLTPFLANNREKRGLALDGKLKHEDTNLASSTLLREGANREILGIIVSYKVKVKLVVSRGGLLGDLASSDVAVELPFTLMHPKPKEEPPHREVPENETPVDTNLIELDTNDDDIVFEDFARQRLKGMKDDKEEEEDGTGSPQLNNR
molecule,measurement,setting,value
"Nn1cnc2scc(-c3ccc(Cc4ccccc4)cc3)c2c1=O [#42, 3-amino-5-(4-benzylphenyl)-3H,4H-thieno[2,3-d]pyrimidin-4-one]",IC50,[1],14.6 ± 5 µM
same,IC50,[2],18.2 ± 7.7 µM
same,IC50,[3],19.1 µM
same,IC50,"[4]; AT1R endocytosis, AngII 1 uM 30 min, read-out: IC50 endosome localization AT1R",40.6 ± 24.4 µM
same,IC50,"[4]; V2R endocytosis, AVP 100 nM 30 min, read-out: IC50 endosome localization V2R",31.5 ± 14.4 µM
same,IC50,"[4]; β2AR endocytosis, ISO 10 uM 30 min, read-out: IC50 endosome localization β2AR",18.4 ± 9.8 µM
Nn1cnc2scc(-c3ccc(-c4ccccc4)cc3)c2c1=O [Analogue-C],IC50,[1],54.3 ± 45 µM
Cc1nc2scc(-c3ccc(C(C)(C)C)cc3)c2c(=O)n1N [Cpd #43],IC50,[1],15.4 ± 6.4 µM
B1,binding result,[5],binds
